Values joined by “and” are separate entries in the source; they are usually repeats but may differ in a detail not shown here. Equal entries are not always repeated. After the bases stand the sugars from the 5' end (letter, count) and the backbone: PS all phosphorothioate, else s phosphorothioate and o phosphodiester by linkage. Methylation of C is not given here. e = 2'-O-(2-methoxyethyl) (MOE); k = constrained ethyl (cEt); d = 2'-deoxy (DNA)
Biological target: IRF4
Details: ASO

Row | Sequence | target mRNA inhibition (SK-MEL-28, 4 µM) [%] | target mRNA inhibition (MM.1R, 1 µM) | further results
1 | GACCAGGATTCGCCAT (sugars k3 d10 k3, PS) | 23 |  | 
2 | CTGAGAGCCGAGGCCT (sugars k3 d10 k3, PS) | -17 |  | 
3 | GGCTCTTGATGTGAAC (sugars k3 d10 k3, PS) |  | -12% | 
4 | GTGATGTCAGGTTTTC (sugars kkdddddddddkdkdk, PS) |  | 27% | 
5 | GCCACTGGCGGAGCTT (sugars k3 d10 k3, PS) | 23 |  | 
6 | CTCCGGAGTCAGTGCT (sugars k3 d10 k3, PS) |  | 1% | 
7 | TAGACTGACAGCCGAA (sugars k3 d10 k3, PS) |  | 3% | 
8 | CATTTCATTTAATGTC (sugars k3 d10 k3, PS) | 33 |  | 
9 | GCATTATCTACCTCAG (sugars k3 d10 k3, PS) | 69 |  | 
10 | AATGTGTATTACTCTT (sugars k3 d10 k3, PS) |  | 53% and 41% | 
11 | TTATCTTCCCTTAGGA (sugars k3 d10 k3, PS) | 28 |  | 
12 | AAAAGCCCAAAATAGG (sugars k3 d10 k3, PS) | -12 |  | 
13 | CAAGCAGTGATGTCAG (sugars kkdddddddddekeke, PS) |  | 26% and 34% | 
14 | CATATACATTGAGGCA (sugars k3 d10 k3, PS) |  | 20% | 
15 | TAGTATGAGAAACGGC (sugars kkdddddddddkdkdk, PS) |  | 39% | 
16 | AGTGACTTGCATCCAT (sugars k3 d10 k3, PS) |  | 67% and 58% | target mRNA inhibition (MM.1R, 0.0625 µM): 10%; target mRNA inhibition (MM.1R, 0.25 µM): 28%; target mRNA inhibition (MM.1R, 4 µM): 78%
17 | CCAAGCCTAGAGGTGC (sugars k3 d10 k3, PS) |  | 21% | 
18 | GTAGAGGAGGAGGACT (sugars k3 d10 k3, PS) | 16 |  | 
19 | CAGTGACTTGCATCCA (sugars k2 d9 e3 k2, PS) |  | 28% | 
20 | AAGTCTACAGCCCCAG (sugars k3 d10 k3, PS) |  | -5% | 
21 | AGAAAACTCTAACCCT (sugars k3 d10 k3, PS) | 25 |  | 
22 | ATTAAAGAGTGGTACA (sugars k3 d10 k3, PS) | -7 |  | 
23 | CAGAAGGGCAACAGTT (sugars k3 d10 k3, PS) | 38 |  | 
24 | GTGATGTCAGGTTTTC (sugars kkdddddddddkekek, PS) |  | 40% | 
25 | GTTCACAACAGAGCTG (sugars k3 d10 k3, PS) |  | -16% | 
26 | TATAGTAGGTAAGATC (sugars k3 d10 k3, PS) | 13 |  | 

Row | Sequence | target mRNA inhibition (SK-MEL-28, 4 µM) [%] | target mRNA inhibition (MM.1R, 1 µM) | further results
27 | CCTTATTAGACTGACA (sugars k3 d10 k3, PS) | 48 |  | 
28 | GAATAAACACCCCTTC (sugars k3 d10 k3, PS) | 44 |  | 
29 | CCCAAATGACTTAGTC (sugars k3 d10 k3, PS) | 32 |  | 
30 | TTTATGGACCACGCAG (sugars k3 d10 k3, PS) | 38 |  | 
31 | CACAAGCATAAAAGGT (sugars k3 d10 k3, PS) | 26 |  | 
32 | AAGCACTGGCATCGAG (sugars k3 d10 k3, PS) | 27 |  | 
33 | TTACTAACTGGCTTCC (sugars k3 d10 k3, PS) | 49 |  | 
34 | CCAGAACTAATGTCCC (sugars k3 d10 k3, PS) |  | 6% | 
35 | ATAGAGCCAGAGCAGT (sugars k3 d10 k3, PS) | 66 |  | 
36 | AAGCAGTGATGTCAGG (sugars k2 d9 e3 k2, PS) |  | 62% and 51% | 
37 | CACCACCTCGAGGCCA (sugars k3 d10 k3, PS) | 24 |  | 
38 | TCCAACCTTTATGATT (sugars k3 d10 k3, PS) |  | -3% | 
39 | AAGATCTCCATGGTGC (sugars k3 d10 k3, PS) |  | 39% and 29% | target mRNA inhibition (MM.1R, 0.0625 µM): 4%; target mRNA inhibition (MM.1R, 0.25 µM): 10%; target mRNA inhibition (MM.1R, 4 µM): 56%
40 | CGCACTCCGGGCACCC (sugars k3 d10 k3, PS) |  | 11% | 
41 | AGCTAATGAGAGCTTC (sugars k3 d10 k3, PS) | 17 |  | 
42 | GTGCAAAACCAGTACA (sugars k3 d10 k3, PS) | 33 |  | 
43 | CATTCACACTGCCGTG (sugars k3 d10 k3, PS) |  | 6% | 
44 | TGCCAAAGAGCCCAAT (sugars k3 d10 k3, PS) |  | -19% | 
45 | CTGACAAGAACTGCTG (sugars k3 d10 k3, PS) | 21 |  | 
46 | CAAAACAGTAAGAGGG (sugars k3 d10 k3, PS) | 31 |  | 
47 | GCGCGGAGGGCAGGCG (sugars k3 d10 k3, PS) |  | -32% | 
48 | AGGAAGTTTACTAACT (sugars k3 d10 k3, PS) | 58 |  | 
49 | CTTGAAGAGCGCGGCG (sugars k3 d10 k3, PS) | 21 |  | 
50 | GCCCACTGAGTGTGCA (sugars k3 d10 k3, PS) | 10 |  | 
51 | GAGTGCAGGAGAGGCT (sugars k3 d10 k3, PS) | 31 |  | 

Reference: the OligoGym collection
